# Measured values taken from patent publication US8604016B2, “Heterocyclic inhibitors of glutaminase” (Calithera Biosciences Inc., priority 2011, dated 2013).
# Molecular target: recombinant form of Glutaminase 1 (GAC) (Homo sapiens, UniProt O94925)
# Test: Recombinant Enzyme Assay (GAC coupled to GDH, NADH absorbance, no preincubation)
# Assay type: biochemical
# Settings: no preincubation; read-out: GAC Delta N2 IC50 no preinc
# Experimental: Enzymatic reaction was started with the addition of 50 μL of enzyme solution (50 mM Tris-HCl pH 8.0, 0.2 mM EDTA, 150 mM K2HPO4, 0.1 mg/ml BSA, 1 mM DTT, 10 ppm antifoam, 4 units/ml GDH, 4 mM adenosine diphosphate, and 4 nM GAC) and read in a Molecular Devices M5 plate reader at 20° C. The plate reader was configured to read absorbance (λ=340 nm) in kinetic mode for 15 minutes. Data was recorded as milli-absorbance units per minute and slopes were compared to a control compound and a DMSO-only control on the same plate. Compounds with slopes less than the DMSO control were considered inhibitors and plate variability was assessed using the control compound.
row,Compound,IC50 [µM]
1,N#Cc1cccc(CC(=O)Nc2nnc(CCSCCc3nnc(NC(=O)Cc4cccc(C#N)c4)s3)s2)c1 [Compound 155],0.27
2,CS(=O)(=O)c1cccc(CC(=O)Nc2nnc(CCSCCc3nnc(NC(=O)Cc4cccc(S(C)(=O)=O)c4)s3)s2)c1 [Compound 158],0.22
3,COc1ccc(CC(=O)Nc2nnc(CCSCCc3nnc(NC(=O)Cc4ccc(OC)cc4)s3)s2)cc1 [Compound 161],0.15
4,CN(C)c1ccc(CC(=O)Nc2nnc(CCSCCc3nnc(NC(=O)Cc4ccc(N(C)C)cc4)s3)s2)cc1 [Compound 162],0.23
5,CN(C)c1ccc(CC(=O)Nc2nnc(CCCCc3nnc(NC(=O)Cc4ccc(N(C)C)cc4)s3)s2)cc1 [Compound 164],0.24
6,O=C(Nc1nnc(CCCCc2nnc(NC(=O)C3(c4ccccc4)CCOCC3)s2)s1)C1(c2ccccc2)CCOCC1 [Compound 166],7.4
7,O=C(Nc1nnc(CCCCc2nnc(NC(=O)C3(c4cccs4)CCOCC3)s2)s1)C1(c2cccs2)CCOCC1 [Compound 167],11
8,CC(=O)OC(C(=O)Nc1nnc(CCCCc2nnc(NC(=O)C(OC(C)=O)c3ccccc3)s2)s1)c1ccccc1 (stereo not shown) [Compound 173],24
9,N[C@H](C(=O)Nc1nnc(CCSCCc2nnc(NC(=O)[C@@H](N)c3ccccc3)s2)s1)c1ccccc1 [Compound 175],6.3
10,COC(=O)C(CC(=O)Nc1nnc(CCCCc2nnc(NC(=O)CC(C(=O)O)c3ccccc3)s2)s1)c1ccccc1 (stereo not shown) [Compound 178],1.5
11,O=C(CCC(C(=O)O)c1ccccc1)Nc1nnc(CCSCCc2nnc(NC(=O)CCC(C(=O)O)c3ccccc3)s2)s1 (stereo not shown) [Compound 179],3.1
12,CS(=O)(=O)c1ccc(CC(=O)Nc2nnc(CCSCCc3nnc(NC(=O)Cc4ccc(S(C)(=O)=O)cc4)s3)s2)cc1 [Compound 182],0.58
13,O=C(Cc1ccc(C(F)(F)F)cc1)Nc1nnc(CCSCCc2nnc(NC(=O)Cc3ccc(C(F)(F)F)cc3)s2)s1 [Compound 183],> 20
14,CC(C)(C)c1ccc(CC(=O)Nc2nnc(CCSCCc3nnc(NC(=O)Cc4ccc(C(C)(C)C)cc4)s3)s2)cc1 [Compound 184],> 20
15,CC(C)(C)OC(=O)Nc1ccc(CC(=O)Nc2nnc(CCSCCc3nnc(NC(=O)Cc4ccc(NC(=O)OC(C)(C)C)cc4)s3)s2)cc1 [Compound 185],> 20
16,O=C(Nc1nnc(CCSCCc2nnc(NC(=O)C3Cc4cc(Cl)ccc4O3)s2)s1)C1Cc2cc(Cl)ccc2O1 (stereo not shown) [Compound 189],4.4
17,CC(C)(C)c1ccc(CC(=O)Cc2nnc(CCCCc3nnc(NC(=O)Cc4ccc(C(C)(C)C)cc4)s3)s2)cc1 [Compound 191],> 20
18,O=C(Cc1cc2ccccc2o1)Cc1nnc(CCSCCc2nnc(NC(=O)Cc3cc4ccccc4o3)s2)s1 [Compound 193],3.4

row,Compound,IC50 [µM]
1,O=C(CN1C(=O)OC[C@@H]1c1ccccc1)Nc1nnc(CCSCCc2nnc(NC(=O)CN3C(=O)OC[C@@H]3c3ccccc3)s2)s1 [Compound 197],6.9
2,Cn1cc(CC(=O)Nc2nnc(CCCCc3nnc(NC(=O)Cc4cn(C)c5ccccc45)s3)s2)c2ccccc21 [Compound 201],2.7
3,COCCOC(C(=O)Nc1nnc(CCCCc2nnc(NC(=O)C(OCCOC)c3ccccc3)s2)s1)c1ccccc1 (stereo not shown) [Compound 203],1.7
4,O=C(Cc1ccc(Cl)s1)Nc1nnc(CCSCCc2nnc(NC(=O)Cc3ccc(Cl)s3)s2)s1 [Compound 206],> 20
5,O=C(Nc1nnc(CCCCc2nnc(NC(=O)[C@@H](O)c3ccccc3Cl)s2)s1)[C@@H](O)c1ccccc1Cl [Compound 210],0.38
6,O=C(Nc1nnc(CCCCc2nnc(NC(=O)C(O)c3cccc(F)c3F)s2)s1)C(O)c1cccc(F)c1F (stereo not shown) [Compound 211],1.2
7,O=C(Cc1csc2ccccc12)Nc1nnc(CCSCCc2nnc(NC(=O)Cc3csc4ccccc34)s2)s1 [Compound 212],> 20
8,O=C(Cn1ccc2ccccc21)Nc1nnc(CCSCCc2nnc(NC(=O)Cn3ccc4ccccc43)s2)s1 [Compound 213],2.5
9,O=C(Nc1nnc(CCSCCc2nnc(NC(=O)c3cc4ccccc4o3)s2)s1)c1cc2ccccc2o1 [Compound 215],16
10,N#Cc1ccc(CC(=O)Nc2nnc(CCSCCc3nnc(NC(=O)Cc4ccc(C#N)cc4)s3)s2)cc1 [Compound 216],0.89
11,O=C(Nc1nnc(CCSCCc2nnc(NC(=O)c3coc4ccccc34)s2)s1)c1coc2ccccc12 [Compound 218],> 20
12,COc1ccccc1CC(=O)Nc1nnc(CCSCCc2nnc(NC(=O)Cc3ccccc3OC)s2)s1 [Compound 219],0.17
13,COC(=O)C(C(=O)Nc1nnc(CCCCc2nnc(NC(=O)C(C(=O)OC)c3ccccc3)s2)s1)c1ccccc1 (stereo not shown) [Compound 220],1.6
14,O=C(Cc1coc2ccccc12)Nc1nnc(CCSCCc2nnc(NC(=O)Cc3coc4ccccc34)s2)s1 [Compound 221],> 20
15,O=C(Cc1coc2ccccc12)Nc1nnc(CCCCc2nnc(NC(=O)Cc3coc4ccccc34)s2)s1 [Compound 222],> 20
16,CC1(C)O[C@H](C(=O)Nc2nnc(CCCCc3nnc(NC(=O)[C@H]4OC(C)(C)O[C@@H]4c4ccccc4)s3)s2)[C@@H](c2ccccc2)O1 [Compound 224],> 20
17,Nc1nnc(CCCCc2nnc(NC(=O)C(CO)c3ccccc3)s2)s1 (stereo not shown) [Compound 227],9.9
18,O=C(Nc1nnc(CCCCc2nnc(NC(=O)c3ccnn3-c3ccccc3)s2)s1)c1ccnn1-c1ccccc1 [Compound 229],3.9

# Further lines, results first:
row,IC50 [µM],Compound
1,0.34,COc1ccc(CC(=O)Nc2nnc(CCSCCc3nnc(NC(=O)Cc4ccc(OC)c(OC)c4)s3)s2)cc1OC [Compound 157]
2,0.16,COc1ccc(CC(=O)Nc2nnc(CCCCc3nnc(NC(=O)Cc4ccc(OC)c(OC)c4)s3)s2)cc1OC [Compound 160]
3,0.51,COCC(C(=O)Nc1nnc(CCCCc2nnc(NC(=O)C(COC)c3ccccc3)s2)s1)c1ccccc1 (stereo not shown) [Compound 165]
4,1.3,O=C(Nc1nnc(CCCCc2nnc(NC(=O)C3(c4ccccc4)CC3)s2)s1)C1(c2ccccc2)CC1 [Compound 168]
5,0.71,O=C(Nc1nnc(CCCCc2nnc(NC(=O)[C@H](O)Cc3ccccc3)s2)s1)[C@H](O)Cc1ccccc1 [Compound 169]
6,7.4,O=C(Nc1nnc(CCCc2nnc(NC(=O)C(O)Cc3ccccc3)s2)s1)C(O)Cc1ccccc1 (stereo not shown) [Compound 170]
7,> 20,CC(=O)OC(C(=O)Nc1nnc(CCCc2nnc(NC(=O)C(OC(C)=O)c3ccccc3)s2)s1)c1ccccc1 (stereo not shown) [Compound 171]
8,1.7,O=C(Nc1nnc(CCCc2nnc(NC(=O)C(O)c3ccccc3)s2)s1)C(O)c1ccccc1 (stereo not shown) [Compound 172]
9,0.29,O=C(Nc1nnc(CCCCc2nnc(NC(=O)C(O)c3ccccc3)s2)s1)C(O)c1ccccc1 (stereo not shown) [Compound 174]
10,0.57,O=C(Nc1nnc(CCCc2nnc(NC(=O)C(CO)c3ccccc3)s2)s1)C(CO)c1ccccc1 (stereo not shown) [Compound 176]
11,1.1,O=C(CC(C(=O)O)c1ccccc1)Nc1nnc(CCCCc2nnc(NC(=O)CC(C(=O)O)c3ccccc3)s2)s1 (stereo not shown) [Compound 177]
12,8.8,O=C(Nc1nnc(CCSCCc2nnc(NC(=O)c3ccccc3CO)s2)s1)c1ccccc1CO [Compound 180]
13,0.25,O=C(Nc1nnc(CCCCc2nnc(NC(=O)C(CO)c3cccs3)s2)s1)C(CO)c1cccs1 (stereo not shown) [Compound 190]
14,10,O=C(Cc1cc2ccccc2o1)Nc1nnc(CCCCc2nnc(NC(=O)Cc3cc4ccccc4o3)s2)s1 [Compound 194]
15,0.3,Nc1ccc(CC(=O)Nc2nnc(CCSCCc3nnc(NC(=O)Cc4ccc(N)cc4)s3)s2)cc1 [Compound 195]
16,0.19,Nc1ccc(CC(=O)Nc2nnc(CCCCc3nnc(NC(=O)Cc4ccc(N)cc4)s3)s2)cc1 [Compound 196]
17,0.18,NS(=O)(=O)c1ccc(CC(=O)Nc2nnc(CCCCc3nnc(NC(=O)Cc4ccc(S(N)(=O)=O)cc4)s3)s2)cc1 [Compound 198]
18,0.12,O=C(Cc1ccccc1)Nc1nnc(CCSCc2nnc(NC(=O)Cc3ccccc3)s2)s1 [Compound 199]
19,0.61,Cn1cc(CC(=O)Nc2nnc(CCSCCc3nnc(NC(=O)Cc4cn(C)c5ccccc45)s3)s2)c2ccccc21 [Compound 200]
20,0.92,COCC(C(=O)Nc1nnc(CCSCCc2nnc(NC(=O)C(COC)c3ccccc3)s2)s1)c1ccccc1 (stereo not shown) [Compound 204]
21,13,O=C(Cc1cc2ccccc2s1)Nc1nnc(CCSCCc2nnc(NC(=O)Cc3cc4ccccc4s3)s2)s1 [Compound 207]
22,> 20,C=CCC(C(=O)Nc1nnc(CCCCc2nnc(NC(=O)C(CC=C)c3ccccc3)s2)s1)c1ccccc1 (stereo not shown) [Compound 209]
23,0.82,NCCC(C(=O)Nc1nnc(CCSCCc2nnc(NC(=O)C(CN)c3ccccc3)s2)s1)c1ccccc1 (stereo not shown) [Compound 214]
24,0.24,NS(=O)(=O)c1ccc(CC(=O)Nc2nnc(CCSCCc3nnc(NC(=O)Cc4ccc(S(N)(=O)=O)cc4)s3)s2)cc1 [Compound 217]
25,> 20,O=C(Nc1nnc(CCCCc2nnc(NC(=O)[C@H](O)[C@@H](O)c3ccccc3)s2)s1)[C@H](O)[C@@H](O)c1ccccc1 [Compound 225]
26,2.3,O=C(Nc1nnc(CCCCc2nnc(NC(=O)[C@@H](O)[C@H](O)c3ccccc3)s2)s1)[C@@H](O)[C@H](O)c1ccccc1 [Compound 226]
27,0.57,"O=C(CCN1CCOCC1)OCC(C(=O)Nc1nnc(CCCCc2nnc(NC(=O)C(CO)c3ccccc3)s2)s1)c1ccccc1 (stereo not shown) [Compound 228, 3-((5-{4-[5-(3-hydroxy-2-phenylpropanamido)-1,3,4-thiadiazol-2-yl]butyl}-1,3,4-thiadiazol-2-yl)amino)-3-oxo-2-phenylpropyl 3-morpholinopropanoate]"

# Same assay, conditions: read-out: GAC Delta N2 IC50 no preinc
row,Compound,IC50 [µM]
1,O=C(Cc1ccccc1CO)Nc1nnc(CCCCc2nnc(NC(=O)Cc3ccccc3CO)s2)s1 [Compound 208],0.17
